Data published in patent US20210047278A1, “E3 UBIQUITIN LIGASE AGONISTS, PHARMACEUTICAL COMPOSITIONS INCLUDING THE E3 UBIQUITIN LIGASE AGONISTS, RELATED METHODS OF USE” (FRED HUTCHINSON CANCER RESEARCH CENTER, priority 2018, published 2021).
Like-named read-outs stand apart in the source and are kept apart here.

Columns and labels:
Format in all cases: binding
FBW7^ARG+pCycE = target: T1, FBW7^ARG+pCycE (Homo sapiens, UniProt Q969H0, R505L); assay: FBW7^ARG-cyclin E agonist ALPHAscreen (primary PRUN, confirmation CRUN1, dose-response DRUN); conditions: for EC50 / Emax: DRUN dose-response; for Emax: relative to WT-FBW7+pCycE, read-out: FBW7 ACT Averaged Max % Response
T1 construct: GST (TEV site and flexible linker) (N, cleaved yes); made in house; host or cells: SF9 insect cells (baculovirus)
T1 sequence (Q969H0 64-707 R505L): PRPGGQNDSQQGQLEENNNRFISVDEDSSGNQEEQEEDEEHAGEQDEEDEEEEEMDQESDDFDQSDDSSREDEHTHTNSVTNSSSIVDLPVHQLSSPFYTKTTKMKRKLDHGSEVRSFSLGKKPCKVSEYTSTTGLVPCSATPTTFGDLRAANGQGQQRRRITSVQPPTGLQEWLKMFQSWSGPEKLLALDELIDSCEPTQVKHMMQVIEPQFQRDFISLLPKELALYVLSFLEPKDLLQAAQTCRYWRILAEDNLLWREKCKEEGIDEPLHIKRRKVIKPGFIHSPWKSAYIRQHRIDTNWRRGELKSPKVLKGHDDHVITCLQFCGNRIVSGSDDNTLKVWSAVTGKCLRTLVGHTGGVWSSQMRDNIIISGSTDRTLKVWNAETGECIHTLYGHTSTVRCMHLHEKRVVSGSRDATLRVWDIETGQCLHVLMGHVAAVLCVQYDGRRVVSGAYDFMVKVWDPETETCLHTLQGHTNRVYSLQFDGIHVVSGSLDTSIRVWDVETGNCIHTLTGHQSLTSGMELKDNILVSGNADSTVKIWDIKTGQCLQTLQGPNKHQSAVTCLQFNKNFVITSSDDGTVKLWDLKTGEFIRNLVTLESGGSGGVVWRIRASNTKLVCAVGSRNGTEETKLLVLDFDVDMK
T1 sequence (P63208 2-163 partner): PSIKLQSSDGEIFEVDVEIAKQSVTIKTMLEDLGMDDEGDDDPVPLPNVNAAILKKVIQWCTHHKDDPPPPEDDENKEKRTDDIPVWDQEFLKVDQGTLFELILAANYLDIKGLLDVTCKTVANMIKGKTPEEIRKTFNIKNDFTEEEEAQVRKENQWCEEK
Description: FBW7^ARG refers to a class of loss-of-function mutations of the of FBW7 ubiquitin ligase that target a key phosphate-binding arginine residue in the FBW7 substrate-binding domain. These mutations are commonly found in human cancers and promote tumorigenesis by impairing the interactions between FBW7 and its substrates, such as cyclin E and Myc. Described herein is a high throughput screen (HTS) to identify agonists, such as small molecules, that augment FBW7^ARG-substrate binding. In an embodiment, the HTS is based on the Amplified Luminescent Proximity Homogenous Assay (ALPHAscreen) because it detects protein-protein interactions with a large dynamic range. ALPHAscreen is a bead-based proximity assay wherein donor beads contain a photosensitizer, phthalocyanine, and acceptor beads contain thioxene, anthracene and rubrenein in sufficient quantities to generate a chemiluminescence/fluorescence reaction (FIG. 4A). Upon excitation with excitation illumination, such as light having a wavelength of 680 nm, of the donor beads, phthalocyanine converts ambient oxygen to singlet oxygen, which can diffuse approximately 200 nm within its 4-microsecond half-life. If an acceptor bead is in close proximity to an excited donor bead, singlet oxygen transfers its energy to the acceptor, resulting in emitted light at a broad bandwidth of −520-620 nm. The HTS-compatible FBW7/cyclin E ALPHAscreen assay described herein uses streptavidin coupled donor beads and Ni-chelate acceptor beads. In this assay, biotinylated cyclin E phosphopeptide and the His-tagged FBW7 mutant protein have high affinity for the donor and acceptor beads, respectively (FIG. 4B). A small molecule that is able to bridge the binding sites of the peptide and the mutant protein (or induce a conformational change that increases affinity of the protein for the peptide) will bring the donor and acceptor beads in close proximity to each other, resulting in an ALPHA signal. As designed, this assay format is a very sensitive, non-radioactive, homogenous “mix-and-read” format that is HT compatible in 384 and 1536 well formats.
In the 384-well screening assay, 10 uL of acceptor beads with 25 nM of the FBW7^ARG (RLFBW7) are dispensed to test wells; acceptor beads with 25 nM of the wt-FBW7 protein (WTFBW7) are dispensed to control wells. Test compounds are then added by pintool transfer and the mixture is incubated for 30 minutes. An additional 10 uL of donor beads with 25 nM cyclin E phosphopeptide is then added to all wells and the plate is incubated for 4 hours before the ALPHA signal is measured.
In preparation for large-scale screening, the assay was miniaturized to a 1536-well format. The miniaturized screen performed outstandingly in all respects. The screen was enhanced with respect to several parameters and assayed its performance using mutant FBW7 and wt-FBW7, as well as non-specific assay agonists. […] For example, the following Z′-scores/FBW7 concentrations were obtained: 6.25 nM/Z′=0.62, 12.5 nm/Z′=0.85, 25.0 nM/Z′=0.84.
1. Add 2.5 uL of RLFBW7/cycE˜P/Ni beads: Final [25 nM/25 nM/10 ug/ml].
2. Add 2.5 uL of WTFBW7/cycE˜P/Ni beads: Final [25 nM/25 nM/10 ug/ml].
4. Add 2.5 uL of SA beads to all wells Final [10 ug/ml],
5. Add 30 nL of compounds,
6. Read ALPHAscreen on Envision
The large-scale FBW7 agonist ALPHAscreen was completed using FBW7^ARG and a phosphorylated cyclin E (pCycE) degron peptide. Wt-FBW7+pCycE-peptide was the “high control”, and Wt-FBW7+unphosph. CycE peptide was the “low control”. The screen was performed on the 645,000-compound Scripps Diversity Library using 1536-well format and drug concentrations of 26.1 μM. An algorithm aided hit identification based on the average percent activation for all compounds and their standard deviation.
A confirmation assay of all 853 compounds in triplicate using a single concentration (26.1 μM). […]

FBW7^ARG (RLFBW7) alone = target: T2, FBW7^ARG (RLFBW7) alone (Homo sapiens, UniProt Q969H0, R505L); assay: Counterscreen 1 ALPHAscreen with FBW7^ARG alone (CSRUN1/DCSRUN1); conditions: dose-response counterscreen; for Emax: read-out: RLFBW7 ACT DCSRUN1 Averaged Max % Response
T2 construct: GST (TEV site and flexible linker) (N, cleaved yes); made in house; host or cells: SF9 insect cells (baculovirus)
T2 sequence (Q969H0 64-707 R505L): as the sequence (Q969H0 64-707 R505L) above
T2 sequence (P63208 2-163 partner): as the sequence (P63208 2-163 partner) above
Description: (§1) Studies in 384-well format were performed using the ENVISION system. Reagent concentrations (see FIG. 6A), order of addition, pH (see FIG. 6B), and reducing agent were altered with the goal of enhancing the dynamic range between wt-FBW7 (the positive control) and FBW7^ARG (FIG. 6 and not shown). Wt-FBW7 produced a signal 100× greater with phosphorylated cyclin E degron peptide compared with unphosphorylated, which represents the assay's maximum range (FIG. 6C). […] This assay thus detects the residual affinity of the FBW7^ARG-substrate interaction, which, as predicted, is stronger than wt-FBW7 protein with unphosphorylated cyclin E peptide. Concurrent with this primary assay, counter ALPHAscreens were developed which omitted either FBW7 or peptide (to eliminate hits that are general ALPHAscreen agonists), or used an irrelevant phosphopeptide (to eliminate compounds that simply augment binding to phosphopeptides). […]
(§2) The 77 hits were subjected to a dose-response assay in which each compound was tested in triplicate in a 10 point 3-fold dilutional series, to a maximum concentration of approximately 87 μM. Three screens were performed, using FBW7^ARG+pCycE (DRUN), FBW7^ARG (DCSRUN1), or pCycE alone (DCSRUN2). See TABLES 2, 3, and 4, respectively, and FIG. 10A. All of the assays performed extremely well, and threshold of 10% activation (relative to WT-FBW7+pCycE) was set as positive. […] Many hits fell into shared structure cluster ID groups, reinforcing the idea that they function as specific agonists (see below and TABLE 5).

pCycE alone = assay: Counterscreen 2 ALPHAscreen with cyclin E phosphopeptide alone (CSRUN2/DCSRUN2); conditions: for CyCEP ACT DCSRUN2 Averaged Max % Response: activation relative to WT-FBW7+pCycE, averaged maximum; for EC50: dose-response, triplicate, 10 point 3-fold dilutional series, read-out: CyCEP ACT DCSRUN2 Final EC50
Description: as §1, §2

[1] = raw curve fit, read-out: FBW7 ACT EC50 Curve Fit Raw, Molar
[2] = triplicate, 10 point 3-fold dilution, max approx. 87 μM, read-out: FBW7 ACT Final EC50, Molar
[3] = confirmation assay, triplicate, single concentration 26.1 μM, read-out: FBW7 ACT CRUN1 Avg % Response and Stdev
[4] = primary screen, 1536-well, 26.1 μM, FBW7^ARG + pCycE degron peptide, high control wt-FBW7+pCycE, read-out: FBW7 ACT PRUN % Response
[5] = raw curve fit, read-out: RLFBW7 ACT DCSRUN1 EC50 Curve Fit Raw
[6] = read-out: RLFBW7 ACT DCSRUN1 Final EC50

| Structure (SMILES) | EC50 (FBW7^ARG+pCycE; [1]) | Emax (FBW7^ARG+pCycE) | EC50 (FBW7^ARG+pCycE; [2]) | activation at 26.1 µM (FBW7^ARG+pCycE; [3]) | activation at 26.1 µM (FBW7^ARG+pCycE; [4]) | EC50 (FBW7^ARG (RLFBW7) alone; [5]) | Emax (FBW7^ARG (RLFBW7) alone) | EC50 (FBW7^ARG (RLFBW7) alone; [6]) | CyCEP ACT DCSRUN2 Averaged Max % Response (pCycE alone) | EC50 (pCycE alone) |
| --- | --- | --- | --- | --- | --- | --- | --- | --- | --- | --- |
| CCC(C)OC(=O)C1=C(C)NC2=C(C(=O)CC(c3ccc(Cl)cc3)C2)C1c1cccc(Cl)c1 (centres unmarked) [SR-01000422821-1] | 16 µM | 9.85% | > 45.8 µM | 6.44 ± 0.56% | 1.86% | 24.1 µM | 4.29% | > 45.8 µM | 0.13% | > 45.8 µM |
| CCN(CC)c1ccc2cc(-c3nc(C)cs3)c(=O)oc2c1 [SR-01000312020-1] | 8.2 µM | 13.9% | > 65.3 µM | 5.16 ± 7.04% | 3.44% | 11.6 µM | 6.67% | > 65.3 µM | 0.77% | > 65.3 µM |
| CC1=C(C(=O)OC(C)C)C(c2ccncc2)C2=C(CC(c3ccccc3)CC2=O)N1 (centres unmarked) [SR-01000217822-2] | 23 µM | 7.67% | > 60.9 µM | 6.36 ± 0.25% | 2.06% | 25.2 µM | 0.88% | > 60.9 µM | 0.03% | > 60.9 µM |
| CC(C)[C@@H](CO)Nc1ccc2ncc(-c3cccc(Cl)c3)n2n1 [SR-01000383396-1] | 0.127 µM | 6.14% | > 65.3 µM | 2.27 ± 0.17% | 2.03% |  | 0.49% | > 65.3 µM | 0.27% | > 65.3 µM |
| CCCOc1ccc(C2C(C(=O)OC)=CN(CCOC)C=C2C(=O)OC)cc1 [SR-01000259436-1] | 21.9 µM | 10.7% | > 65.3 µM | 2.9 ± 0.27% | 2.13% | 19 µM | 5.19% | > 65.3 µM | 0.31% | > 65.3 µM |
| CCN(CC)c1ccc2cc(-c3ccccn3)c(=O)oc2c1 [SR-01000033354-1] | 24.5 µM | 21.9% | > 70.9 µM | 3.34 ± 0.7% | 2.67% | 19.4 µM | 12% | > 70.9 µM | 0.43% | > 70.9 µM |
| COc1ccc(NC(=O)c2cc(S(=O)(=O)N3CCN(c4ccccn4)CC3)ccc2F)cc1 [SR-01000579121-1] | 0.0032 µM | 11.6% | > 54.6 µM | 2.82 ± 0.29% | 1.87% |  | 1.99% | > 54.6 µM |  |  |
| CCCOC(=O)C1=C(C)N(CC)C(=O)NC1c1ccccc1[N+](=O)[O-] (centres unmarked) [SR-01000417871-1] | 8.6 µM | 17.3% | > 67.2 µM | 18.3 ± 0.97% | 2.55% | 2.8 µM | 0.3% | > 67.2 µM |  |  |
